# Experimental data as given in US20030091510A1, “METHODS FOR TREATING AND PREVENTING ASTHMA AND NON-INVASIVE FUNGUS-INDUCED RHINOSINUSITIS” (priority 1997, published 2003).
# “And” between values parts separate entries of the source, which are not always exact repeats. Equal values may be shown once.
# Columns and labels:
# Geotrichum = assay: MIC, macro broth dilution technique (NCCLS) on patient fungal isolates; type: cell-based; details: 48 hour MIC reading; isolate from rhinosinusitis patient
# Experimental: (§1) The following procedure was used to determine effective antifungal agents as well as effective concentrations of antifungal agents such that the fungal organisms isolated from patients can be prevented from growing or killed.
# (§2) Seventeen fungal isolates were collected from eight rhinosinusitis patients and tested for susceptibility against amphotericin B, ketoconazole, and itraconazole. Each antifungal agent was tested on these fungal isolates using the macro broth dilution technique according to the National Committee on Clinical Laboratory Standards (NCCLS) protocol. […] The results from this procedure provided an estimate of the efficacy of antifungal agents against specific fungal isolates in vitro.
# Trichoderma = assay: as above; type: cell-based; details: 48 hour MIC reading; isolate from rhinosinusitis patient
# Experimental: as §1, §2
# [1] = system: non-invasive fungus-induced rhinosinusitis patients; assay: Amphotericin B nasal irrigation study, three month follow-up (Example 2); type: in vivo, human
# From the text: In addition to patient interviewing, CT scan analysis, visual examination, and fungal culture analysis, two types of evaluations were used to score the success of the treatment: an endoscopic evaluation and a patient symptom evaluation. These evaluations were scored as follows:
# (§3) Stage 0: no evidence of disease
# (§4) Stage 1: polypoid changes/polyps seen by endoscopy only
# (§5) Stage 2: polyps in the middle meatus
# (§6) Stage 3: polyps filling the nasal cavity
# (§7) Patient Symptom Evaluation
# (§8) Stage −2: very bad/much worse
# (§9) Stage 0: baseline/no change
# (§10) Stage 2: very good/free of symptoms
# [2] = system: fungal organisms within their mucus; assay: Examination of mucus samples of non-responding patients for resistance; type: cell-based; details: five of the nine non-responding patients with available samples, all five
# From the text: Eleven of the 53 patients went from endoscopic evaluation stage 2 or 3 to stage 1 after three months. […] Five of the nine non-responding patients had previously collected mucus samples that were available for examination.
# rhinosinusitis patient = assay: Single patient study, one-sided then two-sided amphotericin B irrigation, RAST assay to Alternaria; type: in vivo, human
# Experimental: Only the left nasal-paranasal side, however, received surgery as well as intra-operative and post-operative treatment with about 20 mL of an amphotericin B solution (100 mg/L) two to four times daily.
# [3] = system: non-invasive fungus-induced rhinosinusitis patients; assay: Patients returning during a one week period on amphotericin B nasal irrigations (Table II); type: in vivo, human; set-up: key to Endoscopy Score A: endoscopy stage 0 = no disease to 3 = polyps filling nasal cavity; details: A = after antifungal treatment, one patient per line
# From the text: as §3, §4, §5, §6, §7, §8, §9, §10
# Only previously seen patients that were instructed to use the antifungal amphotericin B nasal irrigations were entered into this study.
# During a one week period, twenty patients returned to the physician's office (Table II). The average age of the returning patients was 47 years (range 16-74 years). The patients were using the amphotericin B irrigations for an average duration of about six months (range 1-16 months). […] In addition, some patients were using topical and systemic steroid therapy. Further, some patients were using an antibiotic nasal irrigation in addition to the antifungal irrigations. The antibacterial solution contained 80 mg gentamicin per L saline (Wilson's solution). Some patients mixed the antibacterial solution with the antifungal solution and then performed the nasal irrigations while others used each solution separately in a sequential manner. Some patients also had other diseases including asthma (15 of the 20 patients) and colitis (2 of the 20 patients).
# [4] = system: non-invasive fungus-induced rhinosinusitis patients; assay: Amphotericin B irrigations in patients without previous nasal surgery (Example 3); type: in vivo, human; details: patient; for symptom score after treatment: score −1 before
# From the text: A person was diagnosed with non-invasive fungus-induced rhinosinusitis and instructed to perform amphotericin B irrigations twice a day.
# A person was diagnosed with non-invasive fungus-induced rhinosinusitis and instructed to perform amphotericin B irrigations twice a day, which was later increased to four times a day.
# A person was diagnosed with non-invasive fungus-induced rhinosinusitis and instructed to perform amphotericin B irrigations twice a day. This patient had been given intramuscular steroid shots every 3 to 8 months with the last shot being administered about seven months prior to starting the amphotericin B irrigations.
# [5] = system: non-invasive fungus-induced rhinosinusitis patient; assay: Eosinophil count in mucosal biopsies after antifungal treatment (Example 4); type: in vivo, human; details: person
# [6] = system: patients with previously diagnosed chronic asthma; assay: Chronic asthma symptoms in patients of the Example 2 study (Example 5); type: in vivo, human
# From the text: One hundred and thirty-two consecutive rhinosinusitis patients were entered into a study to evaluate the use of an antifungal agent to treat non-invasive fungus-induced rhinosinusitis. After diagnostic analysis, 125 of the 132 patients (95%) had the following criteria: (1) presence of observable disease within the nasal-paranasal anatomy as evidenced by a CT scan, (2) presence of allergic mucus as evidenced by histologic evaluation of a surgical specimen, and (3) presence of fungal organisms within nasal-paranasal mucus as evidenced by the ability to culture fungal organisms from a mucus sample. The 125 non-invasive fungus-induced rhinosinusitis patients were started on an antifungal treatment of about 20 mL of an amphotericin B solution per nostril; two to four times daily for at least three months. The concentration of the amphotericin B solution was about 100 mg per liter of saline or water. A 20 mL bulb was used by the patient to mucoadminister the amphotericin B solution into the patient's nasal-paranasal anatomy. Data were compiled for 53 of the patients who had returned for their three month follow-up analysis.
# [7] = system: non-invasive fungus-induced rhinosinusitis patients; assay: Itraconazole nasal irrigations in rhinosinusitis patients (Example 7); type: in vivo, human
# Experimental: Three non-invasive fungus-induced rhinosinusitis patients (person, person, and person) were instructed to perform nasal irrigation with an itraconazole solution. The itraconazole solution contained about 100 mg of itraconazole per L of solution (10% PEG-400 in sterile water) and was prepared as described herein. […] Each patient reported marked improvement in symptoms within two weeks of starting the itraconazole irrigations (symptom scores: −1 to +2 and −1 to +1).
# After treatment with itraconazole, that patient reported symptom improvement (symptom score: from −1 to 0).
# Penicillium = assay: MIC, macro broth dilution technique (NCCLS) on patient fungal isolates; type: cell-based; details: 48 hour MIC reading; isolates from rhinosinusitis patients; one isolate per table line
# Experimental: as §1, §2
# chronic asthma patient = assay: Itraconazole nasal irrigations in an asthma patient, symptoms and pulmonary function (Example 8); type: in vivo, human
# Experimental: Sputum and nasal-paranasal mucus samples were collected and analyzed.
# The concentration of the itraconazole solution was about 100 mg per liter. After a few weeks, the patient took their last course of systemic steroids. About two months after stopping the systemic steroids, the patient also stopped using the topical steroids as well as the bronchodilator.
# [8] = Oral itraconazole capsule, fraction remaining in the bowel lumen (Example 10); type: in vivo, human; details: 100 mg capsule before bedtime, at least two hours after last meal, without cola
# From the text: Three out of five consecutive patients with chronic rhinosinusitis reported having a history of colitis. […] Each patient was instructed to take the capsule before bedtime a minimum of two hours after their last meal and without any cola. Food and cola beverages increase absorption of the drug.
# Cladosporium = assay: MIC, macro broth dilution technique (NCCLS) on patient fungal isolates; type: cell-based; details: 48 hour MIC reading; isolates from rhinosinusitis patients; one isolate per table line
# Experimental: as §1, §2
# [9] = after three months, about 20 mL of 100 mg/L solution per nostril two to four times daily
# [10] = after treatment, three month follow-up
# [11] = sixteen days after starting itraconazole irrigations, score 1 before
# [12] = after seven months versus before treatment
smiles,measurement,setting,value
"C[C@@H]1[C@H](O)[C@@H](C)/C=C/C=C/C=C/C=C/C=C/C=C/C=C/[C@H](O[C@@H]2O[C@H](C)[C@@H](O)[C@H](N)[C@@H]2O)C[C@@H]2O[C@](O)(C[C@@H](O)C[C@@H](O)[C@H](O)CC[C@@H](O)C[C@@H](O)CC(=O)O[C@H]1C)C[C@H](O)[C@H]2C(=O)O [Amphotericin B, amphotericin B]",MIC,Geotrichum,0.1 mg/L
same,MIC,Trichoderma,4 mg/L
same,"CT scan finding, patient with bilateral rhinosinusitis","[1]; after four months, 20 mL of 100 mg/L solution per nostril two times daily, no recent surgery, no steroids, FIG. 1 and 2",complete disappearance of opacity and symptoms characteristic of rhinosinusitis
same,number of the 33 stage 0 cases confirmed by CT scans,[1]; after three months,Six
same,number of the 53 patients that went from endoscopic evaluation stage 2 or 3 to stage 0 (no evidence of disease),[1]; [9],33
same,number of the 53 patients that went from endoscopic evaluation stage 2 or 3 to stage 1,[1]; [9],Eleven
same,number of the 53 patients that did not respond to the treatment,"[1]; after three months, endoscopic evaluation",nine
same,number of the 53 patients giving themselves symptom stage 0 (baseline/no change),[1]; [10],six
same,number of the 53 patients giving themselves symptom stage 1 (good/improved),[1]; [10],three
same,number of the 53 patients giving themselves symptom stage 2 (very good/free of symptoms),[1]; [10],44
same,number of different fungal species in mucus after versus before antifungal treatment,"[1]; several patients, fungal organism culturing, amphotericin B irrigation of Example 2",remarkably reduced
same,susceptibility of fungal organisms in mucus of non-responding patients,[2],resistant
same,state of left paranasal sinuses at every post-operative visit,rhinosinusitis patient; left side surgery plus intra- and post-operative irrigation,clear of disease
same,symptoms after treatment of both sides,rhinosinusitis patient; right side surgery and irrigation of both sides for about seven weeks,symptom-free
same,Endoscopy Score A,"[3]; irrigations 1-16 months, 1-2 x day, 0 no evidence of disease, 1 polypoid changes/polyps by endoscopy only, 2 polyps in middle meatus, 3 polyps filling nasal cavity",0 (10×) and 3 (5×) and 1 (2×)
same,Symptom Score A,"[3]; −2 very bad/much worse, −1 bad/worse, 0 baseline/no change, 1 good/improved, 2 very good/free of symptoms",+1 (6×) and +2 (6×) and 0 (6×) and −2 and 1
same,endoscopic score after treatment,"[4]; irrigations twice a day for four months, score 0 before",0
same,symptom score after treatment,[4]; irrigations twice a day for four months,+1
same,endoscopic score after treatment,"[4]; irrigations twice a day for fourteen months, score 3 before",0
same,symptom score after treatment,[4]; irrigations twice a day for fourteen months,+2
same,endoscopic score after treatment,"[4]; irrigations twice, later four times a day, sixteen months, score 1 before",0
same,symptom score after treatment,"[4]; irrigations twice, later four times a day, sixteen months",+2
same,"eosinophil count in mucosal biopsies, all sinuses except the frontal",[5]; after nine months of irrigations twice a day,< 5%
same,eosinophil count in the frontal sinus biopsy,"[5]; after nine months of irrigations, frontal sinus obstructed, presumably not reached",10%
same,number of the 28 patients that stopped taking their asthma medication,[6]; after starting antifungal treatment,26
same,number of the 37 asthmatic patients declaring an improvement or complete elimination of asthma symptoms,[6]; after three months of antifungal treatment (amphotericin B irrigation of Example 2),28
same,pulmonary function test before versus after antifungal treatment,"[6]; four of the 28 improved patients, all four",improved pulmonary function
same,patients of the 23 formerly on systemic steroids that took steroids after starting antifungal treatment,"[6]; human, in vivo",none
same,adverse local reaction to nasal irrigations,"[7]; third patient, amphotericin B irrigations",burning sensation
"CCC(C)n1ncn(-c2ccc(N3CCN(c4ccc(OCC5COC(Cn6cncn6)(c6ccc(Cl)cc6Cl)O5)cc4)CC3)cc2)c1=O (stereo not drawn) [Itraconazole, itraconazole]",MIC,Penicillium,0.25 mg/L
same,"endoscopic score, left side",[7]; [11],1
same,"endoscopic score, right side",[7]; [11],0
same,adverse local reaction to nasal irrigations,"[7]; third patient, itraconazole irrigations",did not have any adverse local reaction
same,symptom score after itraconazole irrigations,"[7]; third patient, switched because of adverse reaction to amphotericin B, score −1 before",0
same,forced expiratory volume in 1 second (FEV1) after treatment,"chronic asthma patient; after seven months of irrigations, 3.34 liter before treatment",4.27 L
same,forced vital capacity (FVC) after treatment,"chronic asthma patient; after seven months of irrigations, 3.99 liter before treatment",4.80 L
same,maximal forced expiratory flow (FEFmax) after treatment,"chronic asthma patient; after seven months of irrigations, 9.1 liter per second before treatment",12.6 liter per second
same,maximum voluntary ventilation (MVV) after treatment,"chronic asthma patient; after seven months of irrigations, 119 liter per minute before treatment",156 liter per minute
same,improvement of MVV,chronic asthma patient; [12],31.90%
same,increase of FEFmax,chronic asthma patient; [12],38.46%
same,increase of FEV1,chronic asthma patient; [12],27.84%
same,increase of FVC,chronic asthma patient; [12],20.30%
same,itraconazole that should remain in the bowel lumen,[8],about 50%
"CC(=O)N1CCN(c2ccc(OCC3COC(Cn4ccnc4)(c4ccc(Cl)cc4Cl)O3)cc2)CC1 (stereo not drawn) [Ketoconazole, ketoconazole]",MIC,Cladosporium,0.05 mg/L
same,MIC,Penicillium,3.13 mg/L
